Patent publication US6066628A, “Non-iron metalloporphyrins and methods of use” (Emory University, priority 1998, dated 2000)

Legend:
[1] = test system: Y. enterocolitica; assay: Disc diffusion sensitivity test; type: cell-based; conditions: disc ~50 μg MP
[2] = test system: N. meningitidis; assay: Disc diffusion sensitivity test; type: cell-based; conditions: disc ~50 μg MP
[3] = test system: S. marcescens; assay: Disc diffusion sensitivity test; type: cell-based, Serratia marcescens; conditions: S. marcescens; disc ~50 μg MP
[4] = test system: E. coli; assay: Disc diffusion sensitivity test; type: cell-based, Escherichia coli; conditions: E. coli; disc ~50 μg MP
[5] = test system: P. mirabills; assay: Disc diffusion sensitivity test; type: cell-based, Proteus mirabilis; conditions: P. mirabilis; disc ~50 μg MP
[6] = test system: K. pneumoniae; assay: Disc diffusion sensitivity test; type: cell-based, Klebsiella pneumoniae; conditions: K. pneumoniae; disc ~50 μg MP
[7] = test system: K. oxytoca; assay: Disc diffusion sensitivity test; type: cell-based, Klebsiella oxytoca; conditions: K. oxytoca; disc ~50 μg MP
[8] = test system: Ps. aeruginosa; assay: Disc diffusion sensitivity test; type: cell-based, Pseudomonas aeruginosa; conditions: disc ~50 μg MP; note: key: -: resistant; N: not determined
[9] = test system: C. freundii; assay: Disc diffusion sensitivity test; type: cell-based, Citrobacter freundii; conditions: C. freundii; disc ~50 μg MP
[10] = test system: E. aerogenes; assay: Disc diffusion sensitivity test; type: cell-based, Enterobacter aerogenes; conditions: E. aerogenes; disc ~50 μg MP
[11] = test system: F. menigosepticum; assay: Disc diffusion sensitivity test; type: cell-based, Flavobacterium meningosepticum; conditions: F. meningosepticum; disc ~50 μg MP
[12] = test system: S. aureus; assay: Disc diffusion sensitivity test; type: cell-based, Staphylococcus aureus; conditions: for diameter (mm) of the inhibition zone: S. aureus, disc ~50 μg MP
[13] = test system: B. subtilis; assay: Disc diffusion sensitivity test; type: cell-based, Bacillus subtilis; conditions: for diameter (mm) of the inhibition zone: B. subtilis, disc ~50 μg MP
[14] = test system: M tuber. H37Rv; assay: Disc diffusion sensitivity test; type: cell-based, Mycobacterium tuberculosis; conditions: disc ~50 μg MP
[15] = test system: M tuber. H37Pa; assay: Disc diffusion sensitivity test; type: cell-based, Mycobacterium tuberculosis; conditions: disc ~50 μg MP
[16] = test system: bacteria; type: cell-based; conditions: listed as Manganese (+2)-meso-tetra-4-sulfonatophenyl porphine
[17] = test system: E. faecalis; assay: Disc diffusion sensitivity test; type: cell-based, Enterococcus faecalis; conditions: disc ~50 μg MP; note: key: -: resistant; N: not determined
[18] = test system: M. smegmatis; assay: Disc diffusion sensitivity test; type: cell-based, Mycobacterium smegmatis; conditions: disc ~50 μg MP
[19] = test system: M. bovis; type: cell-based, Mycobacterium bovis; conditions: disc ~50 μg MP
[20] = test system: S. crevisieae; assay: Disc diffusion sensitivity test; type: cell-based, Saccharomyces cerevisiae; conditions: S. cerevisiae; disc ~50 μg MP
[21] = test system: Y. enterocolitica; assay: microbe, parasite or virus in culture; type: cell-based
[22] = test system: S. aureus; type: cell-based, Staphylococcus aureus; conditions: for antibacterial activity: S. aureus; for Minimal inhibitory concentration (MIC): methicillin-resistant S. aureus IR219, Nutrient broth (Table 2)
[23] = test system: M. smegmatis; type: cell-based, Mycobacterium smegmatis; conditions: M. smegmatis LR222; LB + Tween 80 (Table 2)
[24] = test system: S. pyogenes A; assay: Disc diffusion sensitivity test; type: cell-based, Streptococcus pyogenes; conditions: disc ~50 μg MP
[25] = test system: Y. enterocolitica; assay: Minimal bactericidal concentration; type: cell-based; conditions: reduces plating efficiency more than 99.9%; minimal exposure to light
[26] = test system: S. aureus; assay: Minimal bactericidal concentration; type: cell-based, Staphylococcus aureus; conditions: reduces plating efficiency more than 99.9%; minimal exposure to light
Procedure: Minimal bactericidal concentrations (MBCs) were determined essentially the same way as MICs except that the amount of killing with a particular concentration of porphyrin derivative was determined by plating on solid microbiological media (LB plates or LB+Tween 80). Media were solidified by the incorporation of 1.5% agar (Difco Laboratories). Concentrations of porphyrins that produced 99.9% reduction in bacterial counts were considered bactericidal [Hindler et al. (1994) supra].
MBC were determined by plating bacterial cultures that have been incubate
in the presence of MPs at concentrations higher than MIC. MBC was defined
as a concentration of a particular MP which reduces the plating efficienc
more than 99.9%. Experiments were done with minimal exposure to light
(addition of porphyrins waa done in the presence of artifical light).

[27] = test system: M. smegmatis; assay: Minimal bactericidal concentration; type: cell-based, Mycobacterium smegmatis; conditions: reduces plating efficiency more than 99.9%; minimal exposure to light

| SMILES | diameter (mm) of the inhibition zone [1] | diameter (mm) of the inhibition zone [2] | diameter (mm) of the inhibition zone [3] | diameter (mm) of the inhibition zone [4] | diameter (mm) of the inhibition zone [5] | diameter (mm) of the inhibition zone [6] | diameter (mm) of the inhibition zone [7] | diameter (mm) of the inhibition zone [8] | diameter (mm) of the inhibition zone [9] | diameter (mm) of the inhibition zone [10] | diameter (mm) of the inhibition zone [11] | diameter (mm) of the inhibition zone [12] | diameter (mm) of the inhibition zone [13] | diameter (mm) of the inhibition zone [17] | diameter (mm) of the inhibition zone [18] | diameter (mm) of the inhibition zone [19] | diameter (mm) of the inhibition zone [20] | Minimal inhibitory concentration (MIC) [21] | Minimal inhibitory concentration (MIC) [22] | Minimal inhibitory concentration (MIC) [23] | also measured |
| --- | --- | --- | --- | --- | --- | --- | --- | --- | --- | --- | --- | --- | --- | --- | --- | --- | --- | --- | --- | --- | --- |
| O=S(=O)([O-])c1ccc(-c2c3nc(c(-c4ccc(S(=O)(=O)[O-])cc4)c4ccc([n-]4)c(-c4ccc(S(=O)(=O)[O-])cc4)c4nc(c(-c5ccc(S(=O)(=O)[O-])cc5)c5ccc2[n-]5)C=C4)C=C3)cc1.[Cl-].[Mn+3] [Mn-meso, Mnmeso-tetra(4-sulfonatophenyl)-porphine chloride] | - | - | - | - | - | - | - | - | - | - | - | - | - |  |  |  |  |  |  |  | diameter (mm) of the inhibition zone [14]: -; diameter (mm) of the inhibition zone [15]: -; antibacterial activity [16]: inactive |
| C=CC1=C(C)c2cc3[n-]c(cc4nc(cc5[n-]c(cc1n2)c(C)c5C=C)C(C)=C4CCC(=O)O)c(CCC(=O)O)c3C.[Zn+2] [Zn-PPIX] | - | 10 mm | - |  |  |  |  | - |  |  |  | 12 mm | - | - | - | - | - | > 40 | 3.2 µg/mL | 20 µg/mL | antibacterial activity [22]: some activity |
| C=CC1=C(C)c2cc3[n-]c(cc4nc(cc5[n-]c(cc1n2)c(C)c5CCC(=O)O)C(CCC(=O)O)=C4C)c(C)c3C=C.[Cr+2] [Cr-PPIX] | - | - | - |  |  |  |  | - |  |  |  | 10 mm | - | - | - | - | - | 20 | > 40 µg/mL | 20 µg/mL | diameter (mm) of the inhibition zone [24]: - |
| C=CC1=C(C)c2cc3[n-]c(cc4nc(cc5[n-]c(cc1n2)c(C)c5CCC(=O)O)C(CCC(=O)O)=C4C)c(C)c3C=C.[Ti+2] [Ti-PPIX] | - | - |  | - | - | - | - | - | - | - | - | - | 12 mm | - |  |  |  | > 40 | 40 µg/mL | > 40 µg/mL |  |
| C=CC1=C(C)C2=Cc3c(C=C)c(C)c4[n]3[Mg][n]3c(c(C)c(CCC(=O)O)c3=CC3=NC(=C4)C(C)=C3CCC(=O)O)=CC1=N2 [Mg-PPIX] | - | - |  | - | - | - | - | - | - | - | - |  |  | - |  |  |  |  |  |  | zone of inhibition at 50 µg/disc ([12]; Staphylococcus aureus, read-out: diameter (mm) of the inhibition zone): 15 mm; zone of inhibition at 50 µg/disc ([13]; Bacillus subtilis, read-out: diameter (mm) of the inhibition zone): 15 mm; MIC ([22]; Staphylococcus aureus, read-out: Minimal inhibitory concentration (MIC)): > 10 µg/mL |
| C=Cc1c2[n-]c(c1C)/C=c1\[n-]/c(c(C)c1C=C)=C\c1[n-]c(c(CCC(=O)O)c1C)C=c1[n-]/c(c(C)c1CCC(=O)O)=C\2.[Sn+4] [Sn-PPIX, tin-protoporphyrin IX] | - | - | - |  |  |  |  | - |  |  |  | - | - | - | - | - | - | 20 | > 40 µg/mL | 20 µg/mL | diameter (mm) of the inhibition zone [24]: - |
| C=CC1=C(C)c2cc3[n-]c(cc4nc(cc5[n-]c(cc1n2)c(C)c5CCC(=O)O)C(CCC(=O)O)=C4C)c(C)c3C=C.[Ru+2] [Ru-PPIX] | - | 11 mm | - |  |  |  |  | - |  |  | - | 12 mm | - | - | - | - | - | > 40 | 5 µg/mL | 20 µg/mL | antibacterial activity [22]: some activity; Minimal bactericidal concentration (MBC) [25]: > 40; Minimal bactericidal concentration (MBC) [26]: 10; Minimal bactericidal concentration (MBC) [27]: > 20 |
| C=CC1=C(C)c2cc3[n-]c(cc4nc(cc5[n-]c(cc1n2)c(C)c5CCC(=O)O)C(CCC(=O)O)=C4C)c(C)c3C=C.[Pd+2] [Pd-PPIX] |  | - | - | - | - | - | - | - | - | - | - | - |  | - |  | - |  | > 40 | 50 µg/mL | 20 µg/mL |  |
| C=Cc1c(C)c2cc3[nH]c(cc4nc(cc5nc(cc1[nH]2)C(C)=C5CCC(=O)[O-])C(CCC(=O)[O-])=C4C)c(C)c3C=C.[Co+2] [Co-PPIX] | - | - | - |  |  |  |  | - |  |  |  | 15 mm | - | - | - | - | 18 mm | 20 | 40 µg/mL | 20 µg/mL | diameter (mm) of the inhibition zone [24]: - |
